pKi: −log10 of the molar value.
target: T1, Mtb β-CA3 (Mycobacterium tuberculosis, UniProt P96878); experiment: stopped-flow CO2 hydrase assay; type: biochemical
T1 construct: gene Rv3273
Description: stopped-flow CO2 hydrase assay on Mtb β-CA3

T1 sequence (P96878 555-764 limits assumed): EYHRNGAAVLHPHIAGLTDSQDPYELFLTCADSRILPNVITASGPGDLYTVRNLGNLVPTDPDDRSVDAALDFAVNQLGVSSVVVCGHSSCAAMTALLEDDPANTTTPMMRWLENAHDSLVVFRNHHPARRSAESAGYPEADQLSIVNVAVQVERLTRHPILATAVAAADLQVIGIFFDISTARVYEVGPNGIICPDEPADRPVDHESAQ

Q: How did the pKi turn out when `O=C(S)NCCc1ccccc1` [compound 5, phenylethyl 5] was run?
A: The pKi was 7.03.

Q: `CC(C)CN(CC(C)C)C(=S)S` [compound 8, DTC 8] was tested. Which pKi did it give?
A: The pKi was 7.37.

Q: How did the pKi turn out when `S=C(S)N1CCN(C(=S)S)CC1` [compound 10, bis-piperazine derivative DTC 10] was run?
A: Its pKi is 8.10.

Q: With `O=C(CN1CCN(C(=S)S)CC1)NC1CCCCC1` [compound 11, DTC 11] as the compound, how does the pKi read?
A: The pKi was less than 5.70.

Q: `COc1ccc(CCNC(=O)S)cc1OC` [compound 7, 3,4-dimethoxyphenylethyl derivative 7] was tested. Which pKi did it give?
A: Its pKi is 7.01.

Q: How did the pKi turn out when `O=C(CN1CCN(C(=O)S)CC1)NC1CCCCC1` [compound 6, 6] was run?
A: Its pKi is 6.11.

Q: How did the pKi turn out when `O=C(S)N1CCOCC1` [compound 2, MTC based morpholine 2] was run?
A: Its pKi is 6.13.

Q: With `S=C(S)N1CCOCC1` [compound 9, morpholine DTC 9] as the compound, how does the pKi read?
A: Its pKi is 8.62.

Q: How did the pKi turn out when `CCCN(CCC)C(=O)S` [compound 1, 1] was run?
A: The pKi was 6.25.

Q: How did the pKi turn out when `O=C(S)N1CCN(C(=O)S)CC1` [compound 3, 3] was run?
A: The pKi was 6.09.
